From US3961054A, “Combatting dandruff with mercapto quinoline N-oxides” (Ciba-Geigy Corporation, priority 1974, dated 1976)
Values after ≈ are worked out from the molar mass of the structure shown. Values joined by “and” are separate entries in the source; they are usually repeats but may differ in a detail not shown here. Equal values may be shown once. Where a name gives a salt, the structure may show the parent alone. Read-outs that look alike come from different tables or passages of the source.

Assays:
P. Ovale [1] = assay: Microbiological activity against P. Ovale, agar serial dilution (Table 1); assay type: cell-based, P. Ovale (ATCC 14521); details: for MIC: 96 h, read-out: Minimum Inhibitory Concentration (MIC) against P. Ovale
Experimental: The microbiological activities of the zinc and sodium complexes of 2-mercapto-quinoline-N-oxide (MQNO) against P. Ovale were compared with the sodium and zinc salts of pyridinethione-N-oxide (PTO) and other conventional soapbacteriostats. P. Ovale is a microorganism associated with dandruff conditions.
Equal amounts of the respective compounds were dissolved in methyl cellosolve, dimethylformamide, or water, serially diluted in ten fold sequence and incorporated into plates of molten Agar. The plates were allowed to solidify, were then inoculated with P. Ovale (ATCC 14521), incubated at 27°C. for 4 days and inspected for growth.

Aspergillus oryzae = assay: Antimicrobial spectrum, MIC, Aspergillus oryzae (Table 3); assay type: cell-based, Aspergillus oryzae ATCC 10196; details: for MIC: Aspergillus oryzae
Experimental: (§1) Equivalent amounts of ZnMQNO, NaMQNO, ZnPTO and NaPTO were solubilized in methyl cellosolve (PTO) and dimethyl formamide (MQNO). Ten fold serial dilutions were prepared employing additional solvent and equal aliquots pipetted into molten (50°C) agar support media. Nutrient Agar was employed for all bacteria and Mycological Agar was employed for the fungi and dermatophyte. After preparing pour plates for the bacteria and streaks for the fungi and dermatophyte, the plates were incubated (37°C and 27°C, respectively) and observed for growth.

[2] = tested on: Gram-positive and negative bacteria, fungi and dermatophytes; assay: Antimicrobial spectrum, overall (Example 8); assay type: cell-based; details: in words, from Table 3
Experimental: as §1

Staph. aureus = assay: Antimicrobial spectrum, MIC, Staph. aureus (Table 3); assay type: cell-based, Staph. aureus ATCC 6538; details: Staphylococcus aureus
Experimental: as §1

P. Ovale [3] = assay: Substantivity/activity in calf skin, zone of inhibition against P. Ovale (Table 2); assay type: cell-based; design: unit not given here; details: 2% in shampoo, replicate plates 1-4, 27°C, 4 days
From the text: The substantivity/activity of the zinc complex of 2-mercapto-quinoline-N-oxide of the invention in calf-skin were compared with the zinc salt of pyridinethione-N-oxide in the following manner. ZnMQNO and ZnPTO were incorporated by blending on a 3-roll mill in amounts of 1% and 2% by weight into a non-bacteriostatic paste shampoo of the following composition.
Calf skin specially prepared by the method of Vinson IN VITRO TESTS FOR MEASURING ANTIBACTERIAL ACTIVITY OF TOILET SOAP AND DETERGENT BARS by L. J. Vinson, E. L. Ambye, A. G. Bennet, Journal of Pharmaceutical Sciences, Vol. 50, P. 10, October, 1961.
0.3 g of shampoo was applied in each instance to 12.5 sq. in. of calf skin (equivalent to […] of shampoo per 90.2 sq. in. of human scalp) and a rich lather worked up for 2 minutes. The calf skin was then rinsed in running tap water for 30 seconds with vigorous message to remove all lather. The moist skin was then given a second lather identical to the first and again rinsed as before. After air drying, the calf skins were cut into 2.1 cm discs and placed on agar inoculated with P. Ovale. After 4 days incubation at 27°C, the zones of inhibition size were recorded.

[4] = Relative solubility (statement in words); assay type: physicochemical; details: explains smaller zone size in agar
T. interdigitale = assay: Antimicrobial spectrum, MIC, T. interdigitale (Table 3); assay type: cell-based, Trichophyton interdigitale ATCC 9533; details: Trichophyton interdigitale, ATCC9533, read-out: Minimum Inhibitory Concentration, T. interdigitale
Experimental: as §1

dandruff = details: in words; background; cited from earlier work
Proteus vulgaris = assay: Antimicrobial spectrum, MIC, Proteus vulgaris (Table 3); assay type: cell-based; details: ATCC9920, ATCC 9920, Nutrient Agar, 37°C, ten fold dilutions, read-out: Minimum Inhibitory Concentration, Proteus vulgaris
Experimental: as §1

[5] = Pityrosporum ovale, agar, 27°C, 4 days

In the case of `Oc1cccc2cccnc12` [8-Hydroxyquinoline], the MIC (P. Ovale [1]) is reported as 100 µg/mL (≈ 0.689 mM).

For `Oc1ccc(Cl)cc1Sc1cc(Cl)ccc1O` [2,2'-dihydroxy-5.5'-dichlorodiphenyl monosulfide], the MIC (P. Ovale [1]) was > 1000 µg/mL.

For `C=CCCCCCCCCC(=O)O` [Undecylenic acid], the MIC (P. Ovale [1]) was 1000 µg/mL (≈ 5.43 mM).

For `[O-][n+]1ccccc1S` [Na PTO, sodium salt of pyridinethione-N-oxide], the MIC (P. Ovale [1]) was 7 to 10 µg/mL, the MIC (Aspergillus oryzae; ATCC10196, read-out: Minimum Inhibitory Concentration, Aspergillus oryzae) was 10100 µg/mL and the antimicrobial spectrum [2] was “broad-spectrum antimicrobial agents showing good activity at low concentrations against Gram-positive and negative bacteria, fungi and dermatophytes”. The MIC (Staph. aureus; ATCC6538, read-out: Minimum Inhibitory Concentration, Staph. aureus) was 0.1 µg/mL.

In the case of Undecen-1-ol, the “Minimum Inhibitory Concentration (MIC) against P. Ovale” value (P. Ovale [1]; agar, 27°C, 4 days) is reported as > 1000 PPM.

For `Oc1c(I)cc(I)c2cccnc12` [Diiodohydroxyquinoline], the MIC (P. Ovale [1]; [5]) was 1000 µg/mL (≈ 2.52 mM).

`O=c1[nH]c2cc(Cl)c(Br)cc2o1` [5-chloro-6-bromobenzoxazo-linone] showed an MIC (P. Ovale [1]; [5]) of 1000 µg/mL (≈ 4.02 mM).

In the case of “N-alkyl-dimethyl-ethyl-benzyl ammonium cyclohexyl sulfamate”, the “Minimum Inhibitory Concentration (MIC) against P. Ovale” value (P. Ovale [1]; agar, 27°C, 4 days) is reported as > 1000 PPM.

In the case of “Sodium salt of sulphosuccinate of undecylenic-monoalkylolamide”, the “Minimum Inhibitory Concentration (MIC) against P. Ovale” value (P. Ovale [1]; agar, 27°C, 4 days) is reported as > 1000 PPM.

With “m-alkyl-dimethyl-ethyl-benzyl ammonium chloride” the “Minimum Inhibitory Concentration (MIC) against P. Ovale” value (P. Ovale [1]; agar, 27°C, 4 days) was > 1000 PPM.

For `Oc1c(Cl)cc(Cl)c(Cl)c1Cc1c(O)c(Cl)cc(Cl)c1Cl` [Hexachlorophene], the MIC (P. Ovale [1]) was > 1000 µg/mL.

In the case of `Oc1c(Cl)cc(Cl)cc1Sc1cc(Cl)cc(Cl)c1O` [Thio bis(dichlorophenol)], the “Minimum Inhibitory Concentration (MIC) against P. Ovale” value (P. Ovale [1]; agar, 27°C, 4 days) is reported as > 1000 PPM.

For `[O-][n+]1ccccc1[S-].[O-][n+]1ccccc1[S-].[Zn+2]` [Zn PTO, zinc salt of pyridinethione-N-oxide], the “Minimum Inhibitory Concentration (MIC) against P. Ovale” value (P. Ovale [1]; agar, 27°C, 4 days) was 7-10 PPM, the “Minimum Inhibitory Concentration, Aspergillus oryzae” value (Aspergillus oryzae; ATCC 10196, Mycological Agar, 27°C, ten fold dilutions) was 10 100 PPM and the “Zone of Inhibition Against P. Ovale - Calf Skin, 1 Application” value (P. Ovale [3]; listed as Zinc PTO) was 4.5 and 4.0 and 5.0. The “Zone of Inhibition Against P. Ovale - Calf Skin, 2 Applications” value (P. Ovale [3]; listed as Zinc PTO) was 10.0 and 7.0 and 5.0 and the antimicrobial spectrum [2] was “broad-spectrum antimicrobial agents showing good activity at low concentrations against Gram-positive and negative bacteria, fungi and dermatophytes”.

For `O=C(Nc1ccc(Cl)cc1)Nc1ccc(Cl)c(Cl)c1` [Trichlorocarbanilide], the “Minimum Inhibitory Concentration (MIC) against P. Ovale” value (P. Ovale [1]; agar, 27°C, 4 days) was > 1000 PPM.

In the case of `O=C(Nc1ccc(Cl)cc1)c1cc(Cl)cc(Cl)c1O` [Trichloro salicyanilide], the “Minimum Inhibitory Concentration (MIC) against P. Ovale” value (P. Ovale [1]; agar, 27°C, 4 days) is reported as > 1000 PPM.

With `[O-][n+]1c(S)ccc2ccccc21.[Zn]` [Zn MQNO, Zinc 2-mercaptoquinoline-N-oxide] the “solubility relative to ZnPTO” value [4] was “less soluble than ZnPTO”, the “Zone of Inhibition Against P. Ovale - Calf Skin, 1 Application” value (P. Ovale [3]; listed as MONO) was 0.5 and 1.5 and 1.0 and the “Zone of Inhibition Against P. Ovale - Calf Skin, 2 Applications” value (P. Ovale [3]; listed as MONO) was 2.0 and 4.5 and 2.5. The MIC (T. interdigitale) was 10100 µg/mL.

In the case of “N-alkyl-dimethyl-benzyl ammonium chloride”, the “Minimum Inhibitory Concentration (MIC) against P. Ovale” value (P. Ovale [1]; agar, 27°C, 4 days) is reported as > 1000 PPM.

In the case of `[S]` [elemental sulfur], the “anti-dandruff activity (prior art agents)” value (dandruff) is given as “extremely effective in the control of dandruff”.

`[O-][n+]1c(S)ccc2ccccc21` [Na MQNO, Sodium Complex Of 2-Mercapto-Quinoline-N-Oxide] showed an MIC (P. Ovale [1]; [5]) of 50 to 60 µg/mL, an MIC (Aspergillus oryzae; ATCC10196, ATCC 10196, Mycological Agar, 27°C, ten fold dilutions, read-out: Minimum Inhibitory Concentration, Aspergillus oryzae) of 10100 µg/mL and an MIC (Staph. aureus; ATCC6538, ATCC 6538, Nutrient Agar, 37°C, ten fold dilutions, read-out: Minimum Inhibitory Concentration, Staph. aureus) of 0.1 µg/mL. The MIC (Proteus vulgaris) was 0.1 µg/mL.

For `O=C(Nc1ccc(Cl)c(Cl)c1)c1cc(Cl)cc(Cl)c1O` [Tetrachloro salicyanilide], the “Minimum Inhibitory Concentration (MIC) against P. Ovale” value (P. Ovale [1]; agar, 27°C, 4 days) was 1000 PPM.

In the case of `O=C(Nc1ccc(Br)cc1)c1cc(Br)cc(Br)c1O` [Tribromo salicyanilide], the “Minimum Inhibitory Concentration (MIC) against P. Ovale” value (P. Ovale [1]; agar, 27°C, 4 days) is reported as 1000 PPM.

In the case of `Cc1cc(O)cc(C)c1Cl` [P-chloro-m-xylenol], the MIC (P. Ovale [1]; [5]) is reported as 1000 µg/mL (≈ 6.39 mM).

In the case of `Sc1ccccn1` [2-mercaptopyridine], the MIC (P. Ovale [1]; [5]) is reported as > 1000 µg/mL.

With `Sc1ccc2ccccc2n1` [2-mercaptoquinoline] the MIC (P. Ovale [1]; [5]) was > 1000 µg/mL.
